In paper PMC6691788, “Design and synthesis of phthalazine-based compounds as potent anticancer agents with potential antiangiogenic activity via VEGFR-2 inhibition” (Journal of Enzyme Inhibition and Medicinal Chemistry, 2019):

Tests used:
Assay in all cases: NCI 60 cell panel SRB screen
T-47D = format: cell-based; conditions: Homo sapiens, T47D; for activity at 10 µM: read-out: percent cell growth promotion
HT29 = format: cell-based; conditions: Homo sapiens, HT-29; for activity at 10 µM: HT29, single dose 10 μM, read-out: percent cell growth promotion
HCT-116 = format: cell-based; conditions: Homo sapiens; for activity at 10 µM: HCT-116, single dose 10 μM, read-out: percent cell growth promotion
NCI-H460 = format: cell-based; conditions: Homo sapiens; for activity at 10 µM: NCI-H460, single dose 10 μM, read-out: percent cell growth promotion
LOX IMVI = format: cell-based; conditions: Homo sapiens; for activity at 10 µM: read-out: percent cell growth promotion
HS 578T = format: cell-based; conditions: Homo sapiens; for activity at 10 µM: read-out: percent cell growth promotion
IGROV1 = format: cell-based; conditions: Homo sapiens, IGROV-1; for activity at 10 µM: IGROV1, single dose 10 μM, read-out: percent cell growth promotion
TK-10 = format: cell-based, human; conditions: Homo sapiens; TK-10, single dose 10 μM; read-out: percent cell growth promotion
MDA-MB-468 = format: cell-based; conditions: Homo sapiens; for activity at 10 µM: MDA-MB-468, MDA-MBA-468, single dose 10 μM, read-out: percent cell growth promotion
How it was run: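 Cells in RPMI 1640 with 5% FBS, preincubated 24 h, then exposed to five concentrations for 48 h at 37 °C. TCA fixation, SRB staining, absorbance at 515 nm; a time-zero plate allows GI50 (50% reduction in net protein gain), TGI and LC50 (50% loss versus start).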

SNB-75 = format: cell-based; conditions: Homo sapiens; for activity at 10 µM: SNB-75, single dose 10 μM, read-out: percent cell growth promotion
MDA-MB 231/ATCC = format: cell-based; conditions: Homo sapiens; for activity at 10 µM: MDA-MB-231, read-out: percent cell growth promotion
SK-MEL-5 = format: cell-based; conditions: Homo sapiens; for activity at 10 µM: SK-MEL-5, read-out: percent cell growth promotion
KM12 = format: cell-based; conditions: Homo sapiens; for activity at 10 µM: KM12, single dose 10 μM, read-out: percent cell growth promotion
OVCAR-3 = format: cell-based; conditions: Homo sapiens; for activity at 10 µM: OVCAR-3, single dose 10 μM, read-out: percent cell growth promotion
OVCAR-4 = format: cell-based; conditions: Homo sapiens; for activity at 10 µM: OVCAR-4, single dose 10 μM, read-out: percent cell growth promotion
UACC-62 = format: cell-based; conditions: for activity at 10 µM: UACC-62, read-out: percent cell growth promotion
OVCAR-5 = format: cell-based; conditions: Homo sapiens; for activity at 10 µM: OVCAR-5, single dose 10 μM, read-out: percent cell growth promotion
CCRF-CEM = format: cell-based, human; conditions: for activity at 10 µM: single dose 10 μM, read-out: percent cell growth promotion

c1ccc(N2CCN(c3nncc4ccccc34)CC2)nc1 [Compound 8d, 1–(4-(Pyridin-2-yl)piperazin-1-yl)phthalazine] gave an activity at 10 µM (T-47D) of 101%, an activity at 10 µM (HT29) of 98.2% and an activity at 10 µM (HCT-116) of 103%. It also gave an activity at 10 µM (NCI-H460) of 108%, an activity at 10 µM (LOX IMVI) of 97.5% and an activity at 10 µM (HS 578T; Hs-578T) of 109%. For the same molecule, the activity at 10 µM (IGROV1) was 116%, the activity at 10 µM (TK-10) was 105% and the activity at 10 µM (MDA-MB-468) was 93.3%. It also gave an activity at 10 µM (SNB-75) of 105%, an activity at 10 µM (MDA-MB 231/ATCC) of 108% and an activity at 10 µM (SK-MEL-5) of 97.5%. For the same molecule, the activity at 10 µM (KM12) was 104%, the activity at 10 µM (OVCAR-3) was 99.9% and the activity at 10 µM (OVCAR-4) was 109%. For the same molecule, the activity at 10 µM (UACC-62; Homo sapiens) was 99.6%, the activity at 10 µM (OVCAR-5) was 105% and the activity at 10 µM (CCRF-CEM; Homo sapiens) was 102%.
For COc1cccc(NCc2nnc(Nc3ccc(Cl)cc3)c3ccccc23)c1 [Compound 16d, N-(4-Chlorophenyl)-4-((3-methoxyphenylamino)methyl)phthalazin-1-amine], the GI50 (T-47D) was 0.64 µM, the IC (TGI) (T-47D; read-out: TGI) was 6.56 µM and the activity at 10 µM (T-47D) was -8.49%. For the same molecule, the CC50 (T-47D; T-47D, 5 log dose, 48 h, read-out: LC50 (the source's name)) was over 25 µM, the GI50 (HT29; HT29, 5 log dose) was 0.34 µM and the IC (TGI) (HT29; HT29, 5 log dose) was 3.62 µM. The CC50 (HT29; HT29, 5 log dose, 48 h, read-out: LC50 (the source's name)) was 12 µM, the activity at 10 µM (HT29) was -21% and the GI50 (HCT-116; HCT-116, 5 log dose) was 0.88 µM. The IC (TGI) (HCT-116; HCT-116, 5 log dose) was 4.2 µM, the LC50 (lethal concentration 50%) (HCT-116; HCT-116, 5 log dose, 48 h) was 11.2 µM and the activity at 10 µM (HCT-116) was -44.2%. For the same molecule, the GI50 (NCI-H460; NCI-H460, 5 log dose) was 2.69 µM, the IC (TGI) (NCI-H460; NCI-H460, 5 log dose) was 7.15 µM and the LC50 (concentration causing 50% cell kill) (NCI-H460; NCI-H460, 5 log dose, 48 h) was 19 µM. It also gave an activity at 10 µM (NCI-H460) of 0.1%, a GI50 (LOX IMVI) of 1.11 µM and a CC50 (LOX IMVI; 5 log dose, 48 h, read-out: LC50 (the source's name)) of 12.8 µM. For the same molecule, the IC (TGI) (LOX IMVI; read-out: TGI) was 4.83 µM, the activity at 10 µM (LOX IMVI) was -58.7% and the GI50 (HS 578T; Hs-578T) was 2.9 µM. For the same molecule, the IC (TGI) (HS 578T; Hs-578T, read-out: TGI) was 11.5 µM, the activity at 10 µM (HS 578T; Hs-578T) was 0.54% and the CC50 (HS 578T; HS 578T, 5 log dose, 48 h, read-out: LC50 (the source's name)) was over 25 µM. The GI50 (IGROV1; IGROV1, 5 log dose) was 0.9 µM, the IC (TGI) (IGROV1; IGROV1, 5 log dose) was 6.3 µM and the CC50 (IGROV1; IGROV1, 5 log dose, 48 h, read-out: LC50 (the source's name)) was over 25 µM. For the same molecule, the activity at 10 µM (IGROV1) was 1.51%, the activity at 10 µM (TK-10) was -40.9% and the activity at 10 µM (MDA-MB-468) was -21.9%. The GI50 (MDA-MB-468; MDA-MB-468, 5 log dose) was 1.05 µM, the IC (TGI) (MDA-MB-468; MDA-MB-468, 5 log dose) was 4.73 µM and the CC50 (MDA-MB-468; MDA-MB-468, 5 log dose, 48 h, read-out: LC50 (the source's name)) was 19.5 µM. It also gave a GI50 (SNB-75; SNB-75, 5 log dose) of 0.29 µM, an IC (TGI) (SNB-75; SNB-75, 5 log dose) of 5.27 µM and an LC50 (concentration killing 50% of cells) (SNB-75; SNB-75, 5 log dose, 48 h) of 23.1 µM. It also gave an activity at 10 µM (SNB-75) of -6.06%, a GI50 (MDA-MB 231/ATCC; MDA-MB-231) of 1.32 µM and an IC (TGI) (MDA-MB 231/ATCC; MDA-MB-231, read-out: TGI) of 6.32 µM. It also gave an activity at 10 µM (MDA-MB 231/ATCC) of -27.1%, a CC50 (MDA-MB 231/ATCC; MDA-MB-231, MDA-MDA 231/ATCC, 5 log dose, 48 h, read-out: LC50 (the source's name)) of 19.7 µM and a GI50 (SK-MEL-5; SK-MEL-5) of 0.81 µM. It also gave an IC (TGI) (SK-MEL-5; SK-MEL-5, read-out: TGI) of 4.18 µM, an activity at 10 µM (SK-MEL-5) of -98.5% and a CC50 (SK-MEL-5; SK-MEL-5, 5 log dose, 48 h, read-out: LC50 (the source's name)) of 10.2 µM. It also gave a GI50 (KM12; KM12, 5 log dose) of 0.13 µM, an IC (TGI) (KM12; KM12, 5 log dose) of 6.52 µM and a CC50 (KM12; KM12, 5 log dose, 48 h, read-out: LC50 (the source's name)) of 18.6 µM. The activity at 10 µM (KM12) was -24.9%, the GI50 (OVCAR-3; OVCAR-3, 5 log dose) was 1.64 µM and the IC (TGI) (OVCAR-3; OVCAR-3, 5 log dose) was 10 µM. It also gave a CC50 (OVCAR-3; OVCAR-3, 5 log dose, 48 h, read-out: LC50 (the source's name)) of over 25 µM, an activity at 10 µM (OVCAR-3) of -53.6% and a GI50 (OVCAR-4; OVCAR-4, 5 log dose) of 1.33 µM. For the same molecule, the IC (TGI) (OVCAR-4; OVCAR-4, 5 log dose) was 17.6 µM, the CC50 (OVCAR-4; OVCAR-4, 5 log dose, 48 h, read-out: LC50 (the source's name)) was over 25 µM and the activity at 10 µM (OVCAR-4) was 17.2%. The GI50 (UACC-62; Homo sapiens, UACC-62) was 1 µM, the activity at 10 µM (UACC-62; Homo sapiens) was -29.2% and the CC50 (UACC-62; Homo sapiens, UACC-62, 5 log dose, 48 h, read-out: LC50 (the source's name)) was 20.1 µM. It also gave a TGI (UACC-62; UACC-62, 5 log dose) of 5.76 µM, a GI50 (OVCAR-5; OVCAR-5, 5 log dose) of 3.38 µM and an IC (TGI) (OVCAR-5; OVCAR-5, 5 log dose) of 11.8 µM. The CC50 (OVCAR-5; OVCAR-5, 5 log dose, 48 h, read-out: LC50 (the source's name)) was over 25 µM, the activity at 10 µM (OVCAR-5) was 8.44% and the TGI (CCRF-CEM; 5 log dose) was 13.4 µM. It also gave a GI50 (CCRF-CEM; Homo sapiens, 5 log dose) of 2.73 µM, a CC50 (CCRF-CEM; Homo sapiens, 5 log dose, 48 h, read-out: LC50 (the source's name)) of over 25 µM and an activity at 10 µM (CCRF-CEM; Homo sapiens) of -4.42%.
Cc1nnc(N2CCN(c3ccccc3F)CC2)c2ccccc12 [Compound 8h, 1–(4-(2-Fluorophenyl)piperazin-1-yl)-4-methylphthalazine] gave an activity at 10 µM (T-47D) of 82.3%, an activity at 10 µM (HT29) of 90% and an activity at 10 µM (HCT-116) of 95.6%. It also gave an activity at 10 µM (NCI-H460) of 101%, an activity at 10 µM (LOX IMVI) of 106% and an activity at 10 µM (HS 578T; Hs-578T) of 110%. For the same molecule, the activity at 10 µM (IGROV1) was 109%, the activity at 10 µM (TK-10) was 88.7% and the activity at 10 µM (MDA-MB-468) was 84.8%. It also gave an activity at 10 µM (SNB-75) of 109%, an activity at 10 µM (MDA-MB 231/ATCC) of 121% and an activity at 10 µM (SK-MEL-5) of 92.9%. For the same molecule, the activity at 10 µM (KM12) was 113%, the activity at 10 µM (OVCAR-3) was 110% and the activity at 10 µM (OVCAR-4) was 91.8%. It also gave an activity at 10 µM (UACC-62; Homo sapiens) of 99.2%, an activity at 10 µM (OVCAR-5) of 87.9% and an activity at 10 µM (CCRF-CEM; Homo sapiens) of 99.7%.
For CCOC(=O)N1CCN(c2nnc(C)c3ccccc23)CC1 [Compound 8f, Ethyl 4–(4-methylphthalazin-1-yl)piperazine-1-carboxylate], the activity at 10 µM (T-47D) was 87.2%, the activity at 10 µM (HT29) was 96% and the activity at 10 µM (HCT-116) was 103%. The activity at 10 µM (NCI-H460) was 104%, the activity at 10 µM (LOX IMVI) was 106% and the activity at 10 µM (HS 578T; Hs-578T) was 106%. It also gave an activity at 10 µM (IGROV1) of 109%, an activity at 10 µM (TK-10) of 90.6% and an activity at 10 µM (MDA-MB-468) of 104%. The activity at 10 µM (SNB-75) was 101%, the activity at 10 µM (MDA-MB 231/ATCC) was 114% and the activity at 10 µM (SK-MEL-5) was 97.5%. For the same molecule, the activity at 10 µM (KM12) was 107%, the activity at 10 µM (OVCAR-3) was 112% and the activity at 10 µM (OVCAR-4) was 97.8%. The activity at 10 µM (UACC-62; Homo sapiens) was 109%, the activity at 10 µM (OVCAR-5) was 95% and the activity at 10 µM (CCRF-CEM; Homo sapiens) was 103%.
